Experimental data published in the supplement of paper PMC8612539.
Converted amounts (≈) assume the structure as drawn.

Tested on: Escherichia coli
Test: minimum inhibitory concentration (MIC)
Description: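 Broth microdilution MIC (Sensititre BOPO7F bovine plate, CLSI methods) of 19 antimicrobials against field isolates of P. multocida, M. haemolytica, H. somni (deep nasopharyngeal swabs) and E. coli, Enterococcus spp. (rectal swabs) from weaned dairy heifers. Incubation 16-24 h at 35 C. MIC is the lowest concentration preventing visible growth. Values with <= or > lie at the tested range limits. Trimethoprim-sulfamethoxazole is given as the trimethoprim component of a 1:19 mixture.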

CNC(C)C1CCC(N)C(OC2C(N)CC(N)C(OC3OCC(C)(O)C(NC)C3O)C2O)O1 (stereo not given) [Gentamicin]
Conditions | minimum inhibitory concentration [µg/mL]
isolate (source animal id): 8 | ≤ 1
isolate (source animal id): 9 | ≤ 1
isolate (source animal id): 10 | ≤ 1
isolate (source animal id): 11 | ≤ 1
isolate (source animal id): 12 | ≤ 1
isolate (source animal id): 13 | ≤ 1
isolate (source animal id): 14 | ≤ 1
isolate (source animal id): 15 | ≤ 1
isolate (source animal id): 16 | ≤ 1
isolate (source animal id): 98 | ≤ 1
isolate (source animal id): 99 | ≤ 1
isolate (source animal id): 100 | ≤ 1
isolate (source animal id): 101 | ≤ 1
isolate (source animal id): 102 | ≤ 1
isolate (source animal id): 103 | ≤ 1
isolate (source animal id): 104 | ≤ 1
isolate (source animal id): 105 | ≤ 1
isolate (source animal id): 106 | ≤ 1
isolate (source animal id): 107 | ≤ 1
isolate (source animal id): 108 | ≤ 1
isolate (source animal id): 109 | ≤ 1
isolate (source animal id): 110 | ≤ 1
isolate (source animal id): 111 | ≤ 1
isolate (source animal id): 112 | ≤ 1
isolate (source animal id): 113 | ≤ 1
isolate (source animal id): 114 | ≤ 1
isolate (source animal id): 115 | ≤ 1
isolate (source animal id): 116 | ≤ 1
isolate (source animal id): 117 | ≤ 1
isolate (source animal id): 118 | ≤ 1
isolate (source animal id): 119 | ≤ 1
isolate (source animal id): 120 | ≤ 1
isolate (source animal id): 121 | ≤ 1
isolate (source animal id): 122 | 8 (≈ 16.8 µM)
isolate (source animal id): 123 | ≤ 1
isolate (source animal id): 124 | 2 (≈ 4.19 µM)
isolate (source animal id): 125 | ≤ 1
isolate (source animal id): 126 | ≤ 1
isolate (source animal id): 127 | ≤ 1
isolate (source animal id): 128 | ≤ 1
isolate (source animal id): 129 | ≤ 1
isolate (source animal id): 130 | ≤ 1
isolate (source animal id): 131 | ≤ 1
isolate (source animal id): 132 | ≤ 1
isolate (source animal id): 133 | ≤ 1
isolate (source animal id): 134 | ≤ 1
isolate (source animal id): 135 | ≤ 1
isolate (source animal id): 136 | ≤ 1
isolate (source animal id): 137 | ≤ 1
isolate (source animal id): 138 | ≤ 1
isolate (source animal id): 139 | ≤ 1
isolate (source animal id): 140 | ≤ 1
isolate (source animal id): 141 | ≤ 1
isolate (source animal id): 142 | ≤ 1
isolate (source animal id): 143 | ≤ 1
isolate (source animal id): 144 | ≤ 1
isolate (source animal id): 145 | ≤ 1
isolate (source animal id): 146 | ≤ 1
isolate (source animal id): 147 | ≤ 1
isolate (source animal id): 148 | ≤ 1
isolate (source animal id): 149 | ≤ 1
isolate (source animal id): 150 | ≤ 1
isolate (source animal id): 151 | ≤ 1
isolate (source animal id): 152 | ≤ 1
isolate (source animal id): 153 | ≤ 1
isolate (source animal id): 154 | ≤ 1
isolate (source animal id): 155 | ≤ 1
isolate (source animal id): 156 | ≤ 1
isolate (source animal id): 157 | ≤ 1
isolate (source animal id): 158 | ≤ 1
isolate (source animal id): 159 | ≤ 1
isolate (source animal id): 160 | ≤ 1
isolate (source animal id): 161 | ≤ 1
isolate (source animal id): 162 | ≤ 1
isolate (source animal id): 163 | ≤ 1
isolate (source animal id): 164 | ≤ 1
isolate (source animal id): 165 | ≤ 1
isolate (source animal id): 166 | ≤ 1
isolate (source animal id): 167 | ≤ 1
isolate (source animal id): 168 | ≤ 1
isolate (source animal id): 169 | ≤ 1
isolate (source animal id): 170 | ≤ 1
isolate (source animal id): 171 | ≤ 1
isolate (source animal id): 172 | ≤ 1
isolate (source animal id): 173 | ≤ 1
isolate (source animal id): 174 | ≤ 1
isolate (source animal id): 175 | ≤ 1
isolate (source animal id): 176 | ≤ 1
isolate (source animal id): 177 | ≤ 1
isolate (source animal id): 178 | ≤ 1
isolate (source animal id): 179 | ≤ 1
isolate (source animal id): 180 | 4 (≈ 8.38 µM)
isolate (source animal id): 181 | ≤ 1
isolate (source animal id): 182 | ≤ 1
isolate (source animal id): 183 | ≤ 1
isolate (source animal id): 184 | ≤ 1
isolate (source animal id): 185 | ≤ 1
isolate (source animal id): 186 | ≤ 1
isolate (source animal id): 187 | 8 (≈ 16.8 µM)
isolate (source animal id): 188 | ≤ 1

NC[C@@H]1O[C@H](O[C@H]2[C@@H](O)[C@H](O[C@@H]3[C@@H](O)[C@H](N)C[C@H](N)[C@H]3O[C@H]3O[C@H](CN)[C@@H](O)[C@H](O)[C@H]3N)O[C@@H]2CO)[C@H](N)[C@@H](O)[C@@H]1O [Neomycin]
Conditions | minimum inhibitory concentration [µg/mL]
isolate (source animal id): 8 | 32 (≈ 52.1 µM)
isolate (source animal id): 9 | ≤ 4
isolate (source animal id): 10 | > 32
isolate (source animal id): 11 | ≤ 4
isolate (source animal id): 12 | ≤ 4
isolate (source animal id): 13 | ≤ 4
isolate (source animal id): 14 | 32 (≈ 52.1 µM)
isolate (source animal id): 15 | ≤ 4
isolate (source animal id): 16 | ≤ 4
isolate (source animal id): 98 | ≤ 4
isolate (source animal id): 99 | ≤ 4
isolate (source animal id): 100 | ≤ 4
isolate (source animal id): 101 | ≤ 4
isolate (source animal id): 102 | ≤ 4
isolate (source animal id): 103 | ≤ 4
isolate (source animal id): 104 | ≤ 4
isolate (source animal id): 105 | ≤ 4
isolate (source animal id): 106 | > 32
isolate (source animal id): 107 | ≤ 4
isolate (source animal id): 108 | ≤ 4
isolate (source animal id): 109 | ≤ 4
isolate (source animal id): 110 | ≤ 4
isolate (source animal id): 111 | > 32
isolate (source animal id): 112 | > 32
isolate (source animal id): 113 | ≤ 4
isolate (source animal id): 114 | ≤ 4
isolate (source animal id): 115 | > 32
isolate (source animal id): 116 | ≤ 4
isolate (source animal id): 117 | > 32
isolate (source animal id): 118 | ≤ 4
isolate (source animal id): 119 | ≤ 4
isolate (source animal id): 120 | > 32
isolate (source animal id): 121 | ≤ 4
isolate (source animal id): 122 | > 32
isolate (source animal id): 123 | ≤ 4
isolate (source animal id): 124 | ≤ 4
isolate (source animal id): 125 | ≤ 4
isolate (source animal id): 126 | ≤ 4
isolate (source animal id): 127 | ≤ 4
isolate (source animal id): 128 | ≤ 4
isolate (source animal id): 129 | ≤ 4
isolate (source animal id): 130 | ≤ 4
isolate (source animal id): 131 | ≤ 4
isolate (source animal id): 132 | > 32
isolate (source animal id): 133 | ≤ 4
isolate (source animal id): 134 | ≤ 4
isolate (source animal id): 135 | ≤ 4
isolate (source animal id): 136 | ≤ 4
isolate (source animal id): 137 | > 32
isolate (source animal id): 138 | ≤ 4
isolate (source animal id): 139 | ≤ 4
isolate (source animal id): 140 | ≤ 4
isolate (source animal id): 141 | > 32
isolate (source animal id): 142 | ≤ 4
isolate (source animal id): 143 | > 32
isolate (source animal id): 144 | ≤ 4
isolate (source animal id): 145 | > 32
isolate (source animal id): 146 | ≤ 4
isolate (source animal id): 147 | > 32
isolate (source animal id): 148 | ≤ 4
isolate (source animal id): 149 | ≤ 4
isolate (source animal id): 150 | > 32
isolate (source animal id): 151 | ≤ 4
isolate (source animal id): 152 | ≤ 4
isolate (source animal id): 153 | ≤ 4
isolate (source animal id): 154 | ≤ 4
isolate (source animal id): 155 | 32 (≈ 52.1 µM)
isolate (source animal id): 156 | > 32
isolate (source animal id): 157 | ≤ 4
isolate (source animal id): 158 | > 32
isolate (source animal id): 159 | ≤ 4
isolate (source animal id): 160 | > 32
isolate (source animal id): 161 | > 32
isolate (source animal id): 162 | ≤ 4
isolate (source animal id): 163 | ≤ 4
isolate (source animal id): 164 | ≤ 4
isolate (source animal id): 165 | 32 (≈ 52.1 µM)
isolate (source animal id): 166 | ≤ 4
isolate (source animal id): 167 | ≤ 4
isolate (source animal id): 168 | ≤ 4
isolate (source animal id): 169 | ≤ 4
isolate (source animal id): 170 | ≤ 4
isolate (source animal id): 171 | ≤ 4
isolate (source animal id): 172 | ≤ 4
isolate (source animal id): 173 | ≤ 4
isolate (source animal id): 174 | ≤ 4
isolate (source animal id): 175 | ≤ 4
isolate (source animal id): 176 | ≤ 4
isolate (source animal id): 177 | ≤ 4
isolate (source animal id): 178 | ≤ 4
isolate (source animal id): 179 | ≤ 4
isolate (source animal id): 180 | ≤ 4
isolate (source animal id): 181 | 32 (≈ 52.1 µM)
isolate (source animal id): 182 | ≤ 4
isolate (source animal id): 183 | ≤ 4
isolate (source animal id): 184 | ≤ 4
isolate (source animal id): 185 | ≤ 4
isolate (source animal id): 186 | ≤ 4
isolate (source animal id): 187 | 32 (≈ 52.1 µM)
isolate (source animal id): 188 | ≤ 4
